Results published in the OPERA property sets (Mansouri et al. 2018).

Row | logP | Structure (SMILES)
1 | 2.11 | c1ccc2c(c1)OCCOCCOCCOc1ccccc1OCCOCCOCCO2
2 | 0.76 | COCCOCCOc1ccccc1OCCOCCOC
3 | -0.09 | c1ccc2c(c1)OCCOCCOCCOCCOCCOCCOCCOCCOCCOCCO2
4 | 0.38 | COCCOCCOCCOc1ccccc1OCCOCCOCCOC
5 | 2.2 | c1ccc2c(c1)OCCOCCOc1ccccc1OCCOCCO2
6 | 0.58 | c1ccc2c(c1)OCCOCCOCCOCCOCCO2
7 | 1.45 | c1ccc2c(c1)OCCOCCOCCOCCOCCOCCOc1ccccc1OCCOCCOCCO2
8 | 0.52 | c1ccc2c(c1)OCCOCCOCCOCCOCCOCCOCCOc1ccccc1OCCOCCOCCOCCOCCOCCOCCO2
9 | 1.63 | c1ccc2c(c1)OCCOCCOCCOCCOCCOCCOc1ccccc1OCCO2
10 | 0.45 | c1ccc2c(c1)OCCOCCOCCOCCOCCOCCOCCO2
11 | 1.82 | c1ccc2c(c1)OCCOCCOCCOCCOCCOCCOCCOc1ccccc1OCCO2
12 | 1.8 | c1ccc2c(c1)OCCOCCOCCOCCOc1ccccc1OCCOCCOCCOCCO2
13 | 0.76 | COCCOCCOc1ccc(OCCOCCOC)cc1
14 | 0.91 | c1ccc2c(c1)OCCOCCOCCOCCO2
15 | 0.03 | c1ccc2c(c1)OCCOCCOCCOCCOCCOCCOCCOCCOCCO2
16 | 0.57 | c1ccc2c(c1)OCCOCCOCCOCCOCCOCCO2
17 | 0.86 | COCCOCCOc1cccc(OCCOCCOC)c1
